The values that follow come from publication PMC12136037, “Type II kinase inhibitors that target Parkinson’s disease–associated LRRK2” (Science Advances, 2025).

Test in all cases: DSF 100 kinase selectivity screen;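 for dTm: compound tested at 20 µM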
Format in all cases: binding

For assay [1], the target named is T1, ~100 representative kinases (Homo sapiens, UniProt O75582).
T1 construct: Recombinant protein kinase domains with a concentration of 2 μM
The conditions noted are these: Protein RPS6KA5; DSF; average of three replicates. The method in brief:
(§1)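 Each kinase domain, at 2 μM, is mixed with 20 μM test compound and SYPRO Orange in Hepes (20 mM, pH 7.5) with 500 mM NaCl. Temperature is then raised at 3°C/min and fluorescence-monitored unfolding yields the melting temperature change, ΔTm in degrees Celsius.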

Assay [2] addresses T2, ~100 representative kinases (Homo sapiens, UniProt Q13873).
T2 construct: Recombinant protein kinase domains with a concentration of 2 μM
T2 sequence (Q13873 27-1038): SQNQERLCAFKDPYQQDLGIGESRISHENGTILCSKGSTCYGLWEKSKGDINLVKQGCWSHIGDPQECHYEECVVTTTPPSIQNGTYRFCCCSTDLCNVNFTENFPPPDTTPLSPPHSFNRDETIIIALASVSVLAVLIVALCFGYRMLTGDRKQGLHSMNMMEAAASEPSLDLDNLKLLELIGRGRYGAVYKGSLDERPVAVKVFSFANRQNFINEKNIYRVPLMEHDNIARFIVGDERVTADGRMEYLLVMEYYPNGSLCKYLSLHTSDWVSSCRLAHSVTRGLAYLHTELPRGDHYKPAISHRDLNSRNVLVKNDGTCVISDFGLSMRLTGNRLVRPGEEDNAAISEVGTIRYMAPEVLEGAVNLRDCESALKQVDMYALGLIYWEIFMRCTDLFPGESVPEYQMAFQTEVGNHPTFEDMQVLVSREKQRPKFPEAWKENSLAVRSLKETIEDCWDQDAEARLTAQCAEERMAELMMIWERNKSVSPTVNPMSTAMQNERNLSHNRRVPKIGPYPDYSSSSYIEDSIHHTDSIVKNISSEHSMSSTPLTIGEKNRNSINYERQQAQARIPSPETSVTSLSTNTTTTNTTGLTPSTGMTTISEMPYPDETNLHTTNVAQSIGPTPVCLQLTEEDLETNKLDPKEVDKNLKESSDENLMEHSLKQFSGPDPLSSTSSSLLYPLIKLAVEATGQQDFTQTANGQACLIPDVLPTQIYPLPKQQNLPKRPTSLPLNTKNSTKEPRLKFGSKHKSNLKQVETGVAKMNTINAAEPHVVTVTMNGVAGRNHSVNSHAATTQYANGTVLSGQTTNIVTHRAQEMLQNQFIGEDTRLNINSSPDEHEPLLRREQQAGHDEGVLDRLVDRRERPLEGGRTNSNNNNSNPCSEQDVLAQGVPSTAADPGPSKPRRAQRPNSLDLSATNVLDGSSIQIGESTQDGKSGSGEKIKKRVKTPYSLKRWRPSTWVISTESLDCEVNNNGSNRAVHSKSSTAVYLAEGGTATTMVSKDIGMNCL
The settings on record: Protein BMPR2; average of three replicates. The method in brief:
as §1

Assay [3] addresses T3, ~100 representative kinases (Homo sapiens, UniProt P21675).
T3 construct: Recombinant protein kinase domains with a concentration of 2 μM
The settings on record: Protein TAF1; DSF; average of three replicates. In a few lines: as §1

For assay [4], the target named is T4, ~100 representative kinases (Homo sapiens, UniProt Q9Y6E0).
T4 construct: Recombinant protein kinase domains with a concentration of 2 μM
The conditions noted are these: protein MST3; average of three replicates. The method in brief:
as §1

Assay [5] relates to ~100 representative kinases. The conditions noted are these: for dTm: Protein BRD, average of three replicates; for # >5K: number of proteins of the DSF panel with dTm >5K; for S (5 K) / share of screened kinases stabilized: DSF selectivity panel, thermal shift >5 K. In a few lines: as §1
Assay [6] deals with T5, ~100 representative kinases (Homo sapiens, UniProt Q12866).
T5 construct: Recombinant protein kinase domains with a concentration of 2 μM
T5 sequence (Q12866 21-999): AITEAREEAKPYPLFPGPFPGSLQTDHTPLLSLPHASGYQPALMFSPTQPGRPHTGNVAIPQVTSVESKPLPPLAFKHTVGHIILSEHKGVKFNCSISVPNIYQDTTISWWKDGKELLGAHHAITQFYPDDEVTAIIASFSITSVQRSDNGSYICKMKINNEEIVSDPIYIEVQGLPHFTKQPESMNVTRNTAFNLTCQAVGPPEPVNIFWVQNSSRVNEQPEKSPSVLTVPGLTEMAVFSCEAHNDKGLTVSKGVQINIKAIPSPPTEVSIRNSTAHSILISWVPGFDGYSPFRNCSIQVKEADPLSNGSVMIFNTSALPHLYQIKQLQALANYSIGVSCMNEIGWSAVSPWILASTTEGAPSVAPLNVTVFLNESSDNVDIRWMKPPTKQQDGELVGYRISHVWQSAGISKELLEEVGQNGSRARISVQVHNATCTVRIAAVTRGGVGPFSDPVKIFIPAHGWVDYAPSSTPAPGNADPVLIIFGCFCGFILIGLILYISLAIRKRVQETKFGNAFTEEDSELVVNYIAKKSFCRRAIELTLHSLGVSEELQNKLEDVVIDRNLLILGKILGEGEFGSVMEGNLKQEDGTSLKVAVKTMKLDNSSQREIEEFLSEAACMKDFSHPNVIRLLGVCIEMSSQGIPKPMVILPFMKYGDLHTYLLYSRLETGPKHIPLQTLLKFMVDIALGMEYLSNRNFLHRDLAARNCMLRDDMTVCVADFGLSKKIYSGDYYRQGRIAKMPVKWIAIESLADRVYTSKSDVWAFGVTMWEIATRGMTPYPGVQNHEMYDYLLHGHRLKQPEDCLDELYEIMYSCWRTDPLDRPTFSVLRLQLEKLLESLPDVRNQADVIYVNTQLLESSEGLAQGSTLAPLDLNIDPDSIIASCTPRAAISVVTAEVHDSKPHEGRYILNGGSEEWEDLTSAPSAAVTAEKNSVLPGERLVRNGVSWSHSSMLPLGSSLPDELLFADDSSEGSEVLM
The conditions noted are these: protein MERTK; average of three replicates. The method in brief: as §1

In assay [7] the target is T6, ~100 representative kinases (Homo sapiens, UniProt P15735).
T6 construct: Recombinant protein kinase domains with a concentration of 2 μM
T6 sequence (P15735 1-406): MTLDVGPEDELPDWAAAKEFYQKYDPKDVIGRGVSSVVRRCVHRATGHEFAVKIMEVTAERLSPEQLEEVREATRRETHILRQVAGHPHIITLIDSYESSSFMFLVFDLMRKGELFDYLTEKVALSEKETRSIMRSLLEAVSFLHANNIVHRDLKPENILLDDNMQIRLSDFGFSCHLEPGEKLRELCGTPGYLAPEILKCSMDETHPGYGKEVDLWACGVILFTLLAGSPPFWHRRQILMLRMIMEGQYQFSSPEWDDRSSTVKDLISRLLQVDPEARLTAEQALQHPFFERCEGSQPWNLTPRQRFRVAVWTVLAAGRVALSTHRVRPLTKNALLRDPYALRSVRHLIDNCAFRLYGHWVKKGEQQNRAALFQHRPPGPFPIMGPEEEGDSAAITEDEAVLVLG
The settings on record: protein PHKG2; average of three replicates. In a few lines:
as §1

The mark [8] stands for this setting: number of kinases with thermal shift >5 K divided by total number of kinases screened.
Setting [9] is: selectivity score: # >5K divided by # of proteins tested in the DSF panel.

T3 sequence (P21675 whole entry, the tested form may be a part): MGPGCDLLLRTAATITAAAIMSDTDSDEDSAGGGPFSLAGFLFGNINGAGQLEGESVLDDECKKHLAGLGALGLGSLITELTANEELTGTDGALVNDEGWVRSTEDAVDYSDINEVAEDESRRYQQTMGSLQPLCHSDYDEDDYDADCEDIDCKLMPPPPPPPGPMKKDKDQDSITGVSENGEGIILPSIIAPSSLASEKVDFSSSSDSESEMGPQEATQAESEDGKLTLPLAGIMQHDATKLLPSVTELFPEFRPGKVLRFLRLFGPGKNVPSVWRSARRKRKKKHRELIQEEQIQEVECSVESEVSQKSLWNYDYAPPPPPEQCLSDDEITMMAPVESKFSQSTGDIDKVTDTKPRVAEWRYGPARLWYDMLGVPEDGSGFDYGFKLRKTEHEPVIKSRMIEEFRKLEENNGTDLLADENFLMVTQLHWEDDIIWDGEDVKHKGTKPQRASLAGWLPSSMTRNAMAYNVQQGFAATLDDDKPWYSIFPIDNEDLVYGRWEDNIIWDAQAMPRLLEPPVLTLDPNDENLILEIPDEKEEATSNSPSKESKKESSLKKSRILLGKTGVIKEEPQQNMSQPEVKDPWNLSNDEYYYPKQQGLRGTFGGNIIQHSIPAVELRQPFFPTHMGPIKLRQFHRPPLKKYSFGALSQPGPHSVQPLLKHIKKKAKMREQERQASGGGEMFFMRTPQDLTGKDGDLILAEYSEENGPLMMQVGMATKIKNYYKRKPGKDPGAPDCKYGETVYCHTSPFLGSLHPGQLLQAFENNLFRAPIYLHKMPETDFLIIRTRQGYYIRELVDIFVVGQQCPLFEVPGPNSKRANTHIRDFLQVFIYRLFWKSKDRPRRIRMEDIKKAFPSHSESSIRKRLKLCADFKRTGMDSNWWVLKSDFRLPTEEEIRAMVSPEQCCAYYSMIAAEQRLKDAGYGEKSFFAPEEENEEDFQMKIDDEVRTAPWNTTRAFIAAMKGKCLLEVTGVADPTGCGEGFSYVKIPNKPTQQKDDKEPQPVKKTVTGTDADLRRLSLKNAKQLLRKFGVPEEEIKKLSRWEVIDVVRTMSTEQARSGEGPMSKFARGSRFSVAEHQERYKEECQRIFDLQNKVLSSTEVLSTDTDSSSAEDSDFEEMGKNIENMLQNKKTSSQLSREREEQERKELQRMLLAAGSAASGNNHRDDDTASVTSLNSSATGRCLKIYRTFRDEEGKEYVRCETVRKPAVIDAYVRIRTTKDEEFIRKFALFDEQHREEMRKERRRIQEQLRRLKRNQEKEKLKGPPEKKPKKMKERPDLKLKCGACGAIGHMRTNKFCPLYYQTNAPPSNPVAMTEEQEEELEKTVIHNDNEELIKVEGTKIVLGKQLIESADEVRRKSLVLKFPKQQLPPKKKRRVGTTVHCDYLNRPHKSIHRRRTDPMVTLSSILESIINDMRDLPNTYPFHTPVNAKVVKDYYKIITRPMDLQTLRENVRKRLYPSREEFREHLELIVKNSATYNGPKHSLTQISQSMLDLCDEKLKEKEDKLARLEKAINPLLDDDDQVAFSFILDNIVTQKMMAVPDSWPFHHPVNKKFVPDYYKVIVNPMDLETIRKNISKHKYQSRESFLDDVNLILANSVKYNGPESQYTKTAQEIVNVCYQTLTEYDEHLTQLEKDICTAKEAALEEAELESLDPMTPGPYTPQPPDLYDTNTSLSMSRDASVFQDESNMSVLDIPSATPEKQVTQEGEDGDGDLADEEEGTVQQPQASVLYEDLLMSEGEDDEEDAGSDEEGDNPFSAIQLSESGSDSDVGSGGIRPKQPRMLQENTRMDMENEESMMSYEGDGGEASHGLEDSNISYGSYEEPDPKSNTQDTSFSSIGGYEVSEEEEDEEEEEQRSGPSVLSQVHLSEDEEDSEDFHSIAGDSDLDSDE
T4 sequence (Q9Y6E0 whole entry, the tested form may be a part): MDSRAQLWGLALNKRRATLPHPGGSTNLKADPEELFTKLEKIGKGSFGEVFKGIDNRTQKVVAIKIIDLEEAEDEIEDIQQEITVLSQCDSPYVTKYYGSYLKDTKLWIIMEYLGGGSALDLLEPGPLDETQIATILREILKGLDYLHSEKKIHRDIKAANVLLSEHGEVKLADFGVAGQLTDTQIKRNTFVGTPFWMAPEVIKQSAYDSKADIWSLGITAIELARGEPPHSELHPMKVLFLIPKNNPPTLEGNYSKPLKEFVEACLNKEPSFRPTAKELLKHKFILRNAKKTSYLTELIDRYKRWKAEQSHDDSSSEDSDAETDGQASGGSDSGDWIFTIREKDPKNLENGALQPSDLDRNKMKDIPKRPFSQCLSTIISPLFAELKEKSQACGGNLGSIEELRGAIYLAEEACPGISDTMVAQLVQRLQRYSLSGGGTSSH
T1 sequence (O75582 whole entry, the tested form may be a part): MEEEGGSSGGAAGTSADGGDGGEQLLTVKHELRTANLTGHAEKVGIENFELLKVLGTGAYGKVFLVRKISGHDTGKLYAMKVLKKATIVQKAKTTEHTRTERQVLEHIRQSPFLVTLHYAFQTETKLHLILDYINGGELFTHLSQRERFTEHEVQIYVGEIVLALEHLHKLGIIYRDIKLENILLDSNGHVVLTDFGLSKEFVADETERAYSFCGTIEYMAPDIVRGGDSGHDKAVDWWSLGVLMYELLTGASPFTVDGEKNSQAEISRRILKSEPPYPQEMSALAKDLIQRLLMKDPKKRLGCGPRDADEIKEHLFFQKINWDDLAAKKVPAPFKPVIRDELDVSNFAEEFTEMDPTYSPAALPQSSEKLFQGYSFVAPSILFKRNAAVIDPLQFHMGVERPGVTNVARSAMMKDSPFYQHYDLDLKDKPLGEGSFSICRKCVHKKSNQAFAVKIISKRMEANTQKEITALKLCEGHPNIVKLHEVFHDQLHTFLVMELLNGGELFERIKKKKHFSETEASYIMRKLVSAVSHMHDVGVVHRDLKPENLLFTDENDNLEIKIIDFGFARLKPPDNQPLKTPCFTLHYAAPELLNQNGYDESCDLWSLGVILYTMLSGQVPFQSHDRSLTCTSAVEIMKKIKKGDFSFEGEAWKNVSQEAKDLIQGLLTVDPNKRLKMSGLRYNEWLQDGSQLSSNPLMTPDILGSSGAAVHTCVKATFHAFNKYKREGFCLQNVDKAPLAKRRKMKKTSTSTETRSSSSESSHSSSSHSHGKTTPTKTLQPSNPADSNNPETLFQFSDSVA

As for `Cc1cc(F)ccc1NC(=O)C1(C(=O)Nc2cccc(-c3c[nH]c4ncnc(N5CCOCC5)c34)c2)CC1` [Compound 24], the dTm is given as -1.10 K in assay [1]; 0.57 K in assay [2]; 0.30 K in assay [3]; 3.82 K in assay [4]; -0.87 K in assay [5]; 0.66 K in assay [6]. In assay [7], this compound had a dTm of -0.00698 K. In addition, the “S(5K)” value in assay [5] (setting [8]) is recorded as 0.12; in assay [5] (setting [9]), 0.120. The “# >5K” value in assay [5] amounted to 12.
Take `O=C(Nc1cccc(-c2c[nH]c3ncnc(N4CCOCC4)c23)c1)C1(C(=O)Nc2cc(Br)c(F)cc2F)CC1` [Compound 25]: the dTm in assay [1] worked out at 0.35 K; in assay [2], 0.20 K; in assay [3], 1.63 K; in assay [4], 0.83 K; in assay [5], 1.03 K; in assay [6], 1.84 K. The dTm in assay [7] was determined as 0.58 K. For the same compound, the “S(5K)” value in assay [5] (setting [8]) is 0.10; in assay [5] (setting [9]) it was 0.096. Also, the “# >5K” value in assay [5] worked out at 10.
As for `O=C(Nc1cccc(-c2c[nH]c3ncnc(N4CCOCC4)c23)c1)C1(C(=O)Nc2ccc(F)c(Br)c2F)CC1` [Compound 26], the dTm is recorded as -0.55 K in assay [1]; 0.05 K in assay [2]; -1.20 K in assay [3]; 3.50 K in assay [4]; 1.43 K in assay [5]; 1.09 K in assay [6]. This compound also yielded a dTm in assay [7] of 0.60 K. Moreover, in assay [5], the “S (5 K) / share of screened kinases stabilized” value (shortened to “S (5 K) / share”) was 14%. Moreover, the “S(5K)” value in assay [5] (setting [8]) was 0.14; in assay [5] (setting [9]), 0.144. In assay [5], the “# >5K” value worked out at 15.
Consider `O=C(Nc1cc(F)cc(Br)c1)C1(C(=O)Nc2cccc(-c3c[nH]c4ncnc(N5CCOCC5)c34)c2)CC1` [Compound 27], for which the dTm is recorded as 0.67 K in assay [1]; 0.25 K in assay [2]; -2.32 K in assay [3]; 3.03 K in assay [4]; 1.43 K in assay [5]; 0.27 K in assay [6]. The compound further gave a dTm in assay [7] of 0.85 K. Moreover, the results for the “S(5K)” value in assay [5] (setting [8]) and in assay [5] (setting [9]) were 0.09 and 0.087, respectively. For the same compound, the “# >5K” value in assay [5] was 9.
In the case of `CC(C)(C)c1cc(NC(=O)Nc2cccc(-c3c[nH]c4ncnc(N5CCOCC5)c34)c2)n(-c2ccc3ncccc3c2)n1` [Compound 28], the dTm is 16.84 K in assay [1]; 0.69 K in assay [2]; 1.17 K in assay [3]; 9.37 K in assay [4]; -0.0106 K in assay [5]; 5.15 K in assay [6]. In assay [7], the dTm worked out at 3.91 K. Also, the “S (5 K) / share” value in assay [5] was 49%. Besides, the “S(5K)” value in assay [5] (setting [8]) is 0.49; in assay [5] (setting [9]), 0.490. Besides, the “# >5K” value in assay [5] is 49.
As for `Cc1ccc(-n2nc(C(C)(C)C)cc2NC(=O)Nc2cccc(-c3c[nH]c4ncnc(N5CCOCC5)c34)c2)cc1` [Compound 29], the dTm was 11.96 K in assay [1]; 0.97 K in assay [2]; -10.70 K in assay [3]; 6.78 K in assay [4]; -2.22 K in assay [5]; 2.79 K in assay [6]. This compound had a dTm in assay [7] of 2.17 K. Besides, the results for the “S(5K)” value in assay [5] (setting [8]) and in assay [5] (setting [9]) were 0.36 and 0.356, respectively. In addition, the “# >5K” value in assay [5] was 36.
Turning to `Cc1ccc(-n2nc(C(C)(C)C)cc2NC(=O)Nc2cccc(-c3c[nH]c4nc(Cl)nc(N5CCOCC5)c34)c2)cc1` [Compound 30], the dTm is recorded as 7.61 K in assay [1]; 0.19 K in assay [2]; -4.89 K in assay [3]; 0.96 K in assay [4]; -1.65 K in assay [5]; -1.91 K in assay [6]. Moreover, the dTm in assay [7] is given as -1.15 K. For the same compound, the “S (5 K) / share” value in assay [5] came out at 10%. The “S(5K)” value in assay [5] (setting [8]) is recorded as 0.10; in assay [5] (setting [9]), 0.099. In addition, the “# >5K” value in assay [5] is 10.
`CC(=O)N1CCN(c2nc(Cl)nc3[nH]cc(-c4cccc(NC(=O)Nc5cc(C(C)(C)C)nn5-c5ccc(C)cc5)c4)c23)CC1` [Compound 31]: the dTm in assay [1] is 8.01 K; in assay [2] it was 0.38 K; in assay [3] it was -2.02 K; in assay [4], 3.03 K; in assay [5] it was -3.84 K; in assay [6], 0.10 K. In assay [7], this compound yielded a dTm of -0.72 K. For the same compound, the “S(5K)” value in assay [5] (setting [8]) is given as 0.15; in assay [5] (setting [9]) it was 0.149. In addition, in assay [5], the “# >5K” value stood at 15.
`CCSc1nc(NC)c2c(-c3cccc(NC(=O)Nc4cc(C(C)(C)C)nn4-c4ccc(C)cc4)c3)c[nH]c2n1` [Compound 32]: the dTm is 0.23 K in assay [1]; 0.45 K in assay [2]; -5.70 K in assay [3]; -1.49 K in assay [4]; -0.35 K in assay [5]; 0.0365 K in assay [6]. Moreover, in assay [7], the dTm is recorded as -0.14 K. Moreover, in assay [5] (Rebastinib 96 kinases screened, RN341 103 kinases screened), the “number of kinases stabilized (>5 K)” value amounted to 10. In addition, the “S(5K)” value in assay [5] (setting [8]) was 0.10; in assay [5] (setting [9]) it was 0.097. Moreover, in assay [5], the “# >5K” value came to 10.
